# Data: patent publication KR20110062313A, “시티딘을 포함하는 약제학적 조성물” (주식회사 머젠스, priority 2009, dated 2011)
# Values joined by “and” are separate entries in the source; they are usually repeats but may differ in a detail not shown here. Equal entries are not always repeated.
# Key:
# [1] = system: HCE-T (human cornea epithelial cell) (HCE-T(사람 각막 상피 세포)); test: Hyaluronic acid amount in HCE-T medium by hyaluronan-ELISA; assay type: cell-based; parameters: dose or concentration left out as unconfirmed; conditions: 1 ml medium containing cytidine, 72 h, 37℃
# [2] = system: dry eye model in CBA/J mice (CBA/J 마우스의 건성안 모델); assay type: in vivo, mouse
smiles,measurement,setting,value
Nc1ccn([C@@H]2O[C@H](CO)[C@@H](O)[C@H]2O)c(=O)n1 [시티딘],amount of hyaluronic acid (mean),[1],88.9
same,amount of hyaluronic acid compared with control group,[1]; versus control,히아루론산의 양이 대조군에 비하여 증가하지 않음
same,tear volume (mean),[2]; N 8,7.39 and 4.54 and 6.18 and 7.03
same,tear volume compared with control group,"[2]; mouse, in vivo",유의하게 눈물의 양이 증가
same,tear volume compared with normal group,"[2]; mouse, in vivo",정상군에 해당하는 눈물량의 분비
